Data: patent US11071701B2, “Medicament and cosmetic composition comprising resorcinol derivatives” (Symrise AG, priority 2016, dated 2021)

Experiments:
[1] = test system: ex vivo human skin explants; experiment: Melanin formation after visible light irradiation on ex vivo human skin; details: visible light 480 J/cm2; for % of melanin: Fontana-Masson stain, image analysis
Protocol: The below formulations were applied on ex vivo human skin explants from abdominal surgery of a donor with phototype IV (Fitzpatrick scale). 48 h after the formulations were removed with a cotton pad. Skin explants were exposed to visible light (480 J/cm2) with Hydrosun 750 equipped with KG1 filter. Formulations were reapplied afterwards. 48 h later skin sections were prepared and melanin was stained by Fontana-Masson stain. Quantification of melanin was done by image analysis.

[2] = test system: Human epidermal melanoma cells A375; experiment: Visible light induced hyperpigmentation in vitro (melanin quantification); type: cell-based; details: for Inhibition vs. visible light induced / Melanin: visible light 480 J/cm2; for Melanin: treated 48 h prior to and past irradiation; for inhibition of visible light induced hyperpigmentation (in words): summary of Table 1
Protocol: Human epidermal melanoma cells A375 were cultured in 6-well plates. The cells were exposed to visible light (480 J/cm2) with Hydrosun 750 equipped with KG1 filter. 48 h prior to and past to the irradiation the cells were treated with test compounds in non-cytotoxic concentrations. Melanocytes were lysed in a solution of NaOH. Melanin was quantified by measurement of absorbance at 405 nm and calculation based on a melanin standard curve.

Q: How did the “% of melanin” value ([1]; 0.2% in formulation applied to skin explants (phototype IV)) turn out when `CC(c1ccccc1)c1ccc(O)cc1O` (stereo not shown) [SymWhite ® 377, phenylethyl resorcinol] was run?
A: The value was 42.48 ± 2.6%.

Q: And the “Inhibition vs Placebo” value ([1]; 0.2% in formulation applied to skin explants)?
A: The value was 67.5%.

Q: And the “% of melanin” value ([1]; 0.5% in formulation applied to skin explants (phototype IV))?
A: The value was 25.91 ± 1.2%.

Q: What about the “Inhibition vs Placebo” value ([1]; 0.5% in formulation applied to skin explants) of the same compound?
A: The value was 125.7%.

Q: What about the “Inhibition vs. visible light induced” value ([2]; concentration 0.000068 %) of the same compound?
A: Its value is 79%.

Q: What about the Melanin ([2]; concentration 0.000068 %) of the same compound?
A: The Melanin was 0.5688 ± 0.0793 µg.

Q: And the “Inhibition vs. visible light induced” value ([2]; concentration 0.000210 %)?
A: The value was 86%.

Q: And the Melanin ([2]; concentration 0.000210 %)?
A: The Melanin was 0.5280 ± 0.0494 µg.

Q: What about the “Inhibition vs. visible light induced” value ([2]; concentration 0.000680 %) of the same compound?
A: The value was 100%.

Q: And the Melanin ([2]; concentration 0.000680 %)?
A: Its Melanin is 0.4598 ± 0.1024 µg.

Q: And the “inhibition of visible light induced hyperpigmentation (in words)” value (from here on “inhibition … (in words)”) [2]?
A: The value was “significantly inhibit”.

Q: With `CCCCCCc1ccc(O)cc1O` [4-Hexylresorcinol, 4-hexyl resorcinol] as the compound, how does the “Inhibition vs. visible light induced” value ([2]; concentration 0.000005 %) read?
A: Its value is 91%.

Q: And the Melanin ([2]; concentration 0.000005 %)?
A: Its Melanin is 1.9616 ± 0.2899 µg.

Q: What about the “Inhibition vs. visible light induced” value ([2]; concentration 0.000015 %) of the same compound?
A: The value was 102%.

Q: And the Melanin ([2]; concentration 0.000015 %)?
A: Its Melanin is 1.8407 ± 0.1988 µg.

Q: And the “Inhibition vs. visible light induced” value ([2]; concentration 0.000050 %)?
A: The value was 166%.

Q: What about the Melanin ([2]; concentration 0.000050 %) of the same compound?
A: The Melanin was 1.1668 ± 0.1312 µg.

Q: And the “inhibition … (in words)” value [2]?
A: The value was “significantly inhibit”.

Q: With `CCCCc1ccc(O)cc1O` [4-Butylresorcinol, 4-butyl resorcinol] as the compound, how does the “Inhibition vs. visible light induced” value ([2]; concentration 0.0000316 %) read?
A: The value was 58%.

Q: And the Melanin ([2]; concentration 0.0000316 %)?
A: Its Melanin is 2.3136 ± 0.6518 µg.

Q: And the “Inhibition vs. visible light induced” value ([2]; concentration 0.0001000 %)?
A: The value was 100%.

Q: And the Melanin ([2]; concentration 0.0001000 %)?
A: Its Melanin is 1.8593 ± 0.5365 µg.

Q: And the “Inhibition vs. visible light induced” value ([2]; concentration 0.0003160 %)?
A: The value was 183%.

Q: What about the Melanin ([2]; concentration 0.0003160 %) of the same compound?
A: Its Melanin is 0.9849 ± 0.0738 µg.

Q: And the “inhibition … (in words)” value [2]?
A: The value was “significantly inhibit”.
